Converted amounts (≈) assume the structure as drawn. Like-named read-outs stand apart in the source and are kept apart here.
Legend:
Assay type in all cases: cell-based
[1] = test system: colon cancer cell line HT-29; test: cells; conditions: for IC50: 72 hours, CCK-8, read-out: IC50 ± SD, HT-29
Procedure: (§1) A pancreatic cancer cell line MIA PaCa-2, a colon cancer cell line HT-29, a lung cancer cell line A549, and a liver cancer cell line HepG2 (cell bank of Chinese Academy of Sciences) were cultured in a DMEM culture solution containing 10% fetal bovine serum (Gibco Company) at 37° C. under 5% CO2. HT-29, A549 and HepG2 cell culture media were supplemented with 10% FBS and 1% PSN, and a MIA PaCa-2 cell culture medium was supplemented with 10% FBS, 2.5% HS and 1% PSN.
(§2) Different volumes of DMEM culture media were added to dilute the compounds into different concentrations. Meanwhile, a DMEM culture medium containing 0.1% DMSO was used as a negative control.
(§3) Tumor cells were suspended in a culture medium, MIA PaCa-2, HT-29 and HepG2 cells were inoculated into a 96-well plate at a cell density of 8000, A549 cells were inoculated into a 96-well plate at a cell density of 3000 (100 μL/well), and the cells were cultured at 37° C. under 5% CO2 for 24 hours. In a logarithmic growth phase of the tumor cell lines, different concentrations of compounds (0, 0.004, 0.04, 0.4, 4, and 40 μM) were added to culture the cells at 37° C. under 5% CO2 for 72 hours.
(§4) After 72 hours of interaction between the drugs and the tumor cells, 10 μL of CCK-8 solution was added into each well to incubate the cells in a sterile incubator for 1 hour, and then the solution was taken out to determine an OD value by a microplate reader at a wavelength of 450 nm. IC50 (median inhibitory concentration) values of the compounds were calculated by GraphPad Prism 8 software, and 5-FU and Carboplatin were used as positive controls.

[2] = test system: liver cancer cell line HepG2; test: cells; conditions: for IC50: 72 hours, CCK-8, read-out: IC50 ± SD, HepG2
Procedure: as §1, §2, §3, §4

Candida albicans C5 = test: MIC, compound 1 alone and combined with amphotericin B
Source text: (§5) Helicobacter pylori (G27 and HP129) and Candida albicans (SC5314 and C5) both came from Professor Hongkai Bi's laboratory of Nanjing Medical University. Main culture mediums and main reagents: Colombian culture medium, LB culture medium, selective antibiotics (metronidazole and amphotericin B), serum, and the like.
(§6) LB culture medium: 15 g/L glucose, 10 g/L yeast extract, 5 g/L peptone, and 10 g/L sodium chloride.
(§7) (1) Sample solutions of the compounds 1 and 2 prepared in Embodiment 1 were configured to have a concentration of 2 mg/mL.
(§8) (2) In preparation by a MIC plate, a first well was added with 173.6 μL of culture medium and then added with 6.4 μL of antibacterial drug, and dilution was carried out by multiple proportions to a 7th well; and an 8th well was not added with the drug, but was reserved with 90 μL of culture medium to serve as a control with bacteria but no drug.
(§9) (4) In inoculation, 10 μL of bacterial solution was added into the 1st to 8th wells (a concentration of the bacterial solution in each well was about 1.0×10^6 CFU/mL). Results were judged after 72 hours of culture. Drug concentrations from the 1st to 7th wells were 64 μg/mL, 32 μg/mL, 16 μg/mL, 8 μg/mL, 4 μg/mL, 2 μg/mL, and 1 μg/mL respectively.
(§10) (5) In result judgment, a lowest drug concentration capable of completely inhibiting the growth of bacteria in the wells was MIC. The test was only meaningful when the bacteria in the 8th well of the positive control well (without antibiotics) grew obviously. When there was a single drift in a microdilution method, a highest drug concentration capable of inhibiting the growth of bacteria should be recorded. If there were many drifts, the results should not be reported, and the test should be repeated. Each drug was tested repeatedly for 3 times.

Candida albicans SC5314 = test: as above
Source text: as §5, §6, §7, §8, §9, §10

[3] = test system: lung cancer cell line A549; conditions: for IC50: 72 hours, CCK-8, read-out: IC50 ± SD, A549
Procedure: as §1, §2, §3, §4

[4] = test system: Helicobacter pylori H. pylori 129; test: Determination of MIC (microdilution); conditions: 72 hours of culture, R = drug-resistant strain
Procedure: as §5
(§11) Colombian liquid culture medium: 29.0 g of Colombian liquid culture medium was accurately weighed, heated, and dissolved in 1000 mL of double distilled water, and the culture medium was subjected to autoclaved sterilization at 121° C. for 15 minutes after being completely dissolved for later use.
(§12) Colombian blood agar solid culture medium: 39.0 g of Colombian blood agar solid culture medium was accurately weighed, heated, and dissolved in 1000 mL of double distilled water, and the culture medium was subjected to autoclaved sterilization at 121° C. for 15 minutes after being completely dissolved, naturally cooled to about 50° C. after the autoclaved sterilization, quickly added with 5% sterile deflbrinated sheep blood, mixed evenly, and then poured into a sterile dish while the mixture was hot.
(§13) Standard strains of Helicobacter pylori were taken out of a refrigerator at −80° C. and placed at room temperature, 200 μL of standard strains were accurately sucked, transferred to a solid culture medium, and spread with an L-shaped glass rod, a culture dish loaded with the strains was put into a culture bag, then an AnaeroPack was put into the culture bag, and the culture bag was quickly sealed and then put into a constant-temperature incubator at 37° C. to culture the strains for 72 hours. After the end of culture, the Helicobacter pylori was identified first, then a bacterial lawn on the solid culture medium was scraped off, and the bacterial lawn was transferred into 50 mL of liquid culture medium to serve as an original bacterial solution.
as §7, §8
(§14) (3) In preparation of bacterial solution, the Helicobacter pylori growing at a logarithmic phase on a solid plate was made into a bacterial suspension with a BHI culture medium, an OD600 value of concentration of the bacterial suspension was adjusted to be 0.3 (1×10^8 CFU/mL), and then the bacterial suspension was diluted 10 times to reach 1×10^7 CFU/mL for later use.
as §9, §10

[5] = test system: Helicobacter pylori H. pylori G27; test: Determination of MIC (microdilution); conditions: 72 hours of culture
Procedure: as §5, §11, §12, §13, §7, §8, §14, §9, §10

[6] = test system: pancreatic cancer cell line MIA PaCa-2; conditions: for IC50: 72 hours, CCK-8, read-out: IC50 ± SD, MIA PaCa-2
Procedure: as §1, §2, §3, §4

O=c1[nH]cc(F)c(=O)[nH]1 [5-Fluorouracil, reference compound]
IC50 ([1]; Homo sapiens, HT-29): 12.87 ± 0.04 µM
IC50 ([2]; Homo sapiens, HepG2): 4.82 ± 0.07 µM

C[C@@H]1[C@H](O)[C@@H](C)/C=C/C=C/C=C/C=C/C=C/C=C/C=C/[C@H](O[C@@H]2O[C@H](C)[C@@H](O)[C@H](N)[C@@H]2O)C[C@@H]2O[C@](O)(C[C@@H](O)C[C@@H](O)[C@H](O)CC[C@@H](O)C[C@@H](O)CC(=O)O[C@H]1C)C[C@H](O)[C@H]2C(=O)O [AMB, amphotericin B, reference compound]
AMB MIC, separate use (Candida albicans C5; C5, AMB alone): 2 µg/mL
AMB MIC, separate use (Candida albicans SC5314; SC5314, AMB alone): 2 µg/mL

N.N.O=C([O-])C1(C(=O)[O-])CCC1.[Pt+2] [Carboplatin, reference compound]
IC50 [3]: > 40 µM

COC(=O)C12CCC(C)(CC3C(=O)C45C(O)C3CCC4C34COC5(O)C(O)C3C(C)(C)CCC4O)C(C)=C1C1=CCC3C4(C)CC(O)C(O)C(C)(C)C4CCC3(C)C1(C)CC2 (centres unmarked) [Compound 1, Bisicacinol B]
MIC, H. pylori 129 [4]: 32 µg/mL (≈ 37.7 µM)
MIC, H. pylori G27 [5]: 16 µg/mL (≈ 18.8 µM)
cytotoxic activity in words, MIA PaCa-2 [6]: strong activity
IC50 [6]: 13.1 ± 0.18 µM
cytotoxic activity in words, A549 [3]: strong activity
IC50 [3]: 4.2 ± 0.24 µM
cytotoxic activity in words, HT-29 [1]: strong activity
IC50 [1]: 14.95 ± 0.14 µM
cytotoxic activity in words, HepG2 [2]: strong activity
IC50 [2]: 14.84 ± 0.12 µM
Compound 1 MIC, combined use (Candida albicans C5; C5, combined with AMB): 1 µg/mL
FICI index after combination (Candida albicans C5; C5, compound 1 + AMB): ≤0.078
Compound 1 MIC, separate use (Candida albicans C5; C5, compound 1 alone): >32 µg/mL
MIC + 0.5 μg/ml AMB (Candida albicans C5; C5, compound 1 with 0.5 μg/ml AMB): 1 µg/mL
inhibitory effect on growth in words, used separately (Candida albicans C5; Candida albicans C5, compound alone): no significant inhibitory effect
inhibitory effect on growth in words, used separately (Candida albicans SC5314; Candida albicans SC5314, compound alone): no significant inhibitory effect
Compound 1 MIC, combined use (Candida albicans SC5314; SC5314, combined with AMB): 1 µg/mL
FICI index after combination (Candida albicans SC5314; SC5314, compound 1 + AMB): ≤0.078
Compound 1 MIC, separate use (Candida albicans SC5314; SC5314, compound 1 alone): >32 µg/mL
MIC + 0.5 μg/ml AMB (Candida albicans SC5314; SC5314, compound 1 with 0.5 μg/ml AMB): 1 µg/mL

COC(=O)C12CCC(C)(CC3C(=O)C45C(O)C3CCC4C34COC5(O)C(O)C3C(C)(C)CCC4O)C(C)=C1C1=CCC3C4(C)CC(O)C(O)C(C)(C)C4CCC3(C)C1(C)CC2 (centres unmarked) [Compound 2, Bisicacinol C]
MIC, H. pylori 129 [4]: 32 µg/mL (≈ 37.7 µM)
MIC, H. pylori G27 [5]: 16 µg/mL (≈ 18.8 µM)
IC50 [6]: > 40 µM
cytotoxic activity in words, A549 [3]: strong inhibitory activity
IC50 [3]: 23.1 ± 0.12 µM
cytotoxic activity in words, HT-29 [1]: strong inhibitory activity
IC50 [1]: 33.35 ± 0.06 µM
IC50 [2]: > 40 µM

Cc1ncc([N+](=O)[O-])n1CCO [MTZ, metronidazole, reference compound]
MIC ([4]; Helicobacter pylori): 8 µg/mL (≈ 46.7 µM)
MIC ([5]; Helicobacter pylori): 2 µg/mL (≈ 11.7 µM)

Source: patent US20250281444A1, “COMPOUND WITH NEW SKELETON OF URSANE TRITERPENOID - ENT-KAURANE DITERPENOID DIMER, AND PREPARATION METHOD THEREOF AND APPLICATION THEREOF” (NANJING UNIVERSITY OF CHINESE MEDICINE, priority 2025, published 2025)
